Measurements taken from paper PMC8956739, “A synthetic lipopeptide targeting top-priority multidrug-resistant Gram-negative pathogens” (Nature Communications, 2022).
Values after ≈ are worked out from the molar mass of the structure shown. Values joined by “and” are separate entries in the source; they are usually repeats but may differ in a detail not shown here. Equal values may be shown once. Read-outs that look alike come from different tables or passages of the source. Residues, ends and D or L forms follow the SMILES beside them.

Experiments:
Swiss mice, kidney = test: Nephrotoxicity in mice (kidney histopathology); type: in vivo, mouse; settings: for Kidney histopathology (SQS Score): 72 mg/kg/d subcutaneously in six divided doses every 2 h, n = 3; for Kidney histopathology, mice with the SQS score: mouse, in vivo
Protocol: The experimental methodology has been previously reported by our group. Briefly, individual lipopeptide solutions were prepared in sterile saline (6 mg/mL). Swiss mice (female, 7-week-old, 22–28 g) were subcutaneously administered at 12 mg/kg in, 6 doses every 2 h to reach a total dose of 72 mg/kg (n = 3). For high-dose nephrotoxicity experiments, mice were intraperitoneally administered at 20 or 25 mg/kg, in 6 doses every 2 h to reach a total dose of 120 mg/kg (n = 6) or 150 mg/kg (n = 3). At 20 h after the last dose, the right kidney from each mouse was collected and placed in 10% buffered (pH 7.4) formalin (Sigma-Aldrich, Castle Hill, NSW, Australia). The kidneys were subjected to histological examination at the Australian Phenomics Network-Histopathology and Organ Pathology (University of Melbourne, Parkville, VIC, Australia), who was blind to the treatment groups.

A. baumannii ATCC 19606 = type: cell-based, Acinetobacter baumannii
Protocol: (§1) MICs were determined in cation-adjusted Mueller–Hinton broth (CaMHB) by the broth micro-dilution method against ATCC strains and clinical isolates. MICs in the presence of Survanta® were determined as described above against P. aeruginosa ATCC 27853. In the 100 μL of fresh CaMHB containing polymyxins, 10% Survanta® (v/v, 2.5 mg/mL phospholipids) was added. MICs in the presence and absence of Survanta® were compared to determine the effect of binding to lung surfactant on the antibacterial activity of polymyxins.

A. baumannii FADDI-AB034 = type: cell-based, Acinetobacter baumannii
Protocol: as §1

A. baumannii FADDI-AB030 = type: cell-based, Acinetobacter baumannii
Protocol: as §1

P. aeruginosa ATCC 27853 [1] = test: Neutropenic mouse bloodstream infection model; type: in vivo; settings: single IV dose 4 mg/kg; for Log10 CFU/mL blood at 4 h, Mean / Δlog10 CFU/mL blood (mean) / Log10 CFU/mL blood at 4 h, single mouse: 4 h; for Δlog10 CFU/mL blood (mean): treated minus control, mean of replicates; for Δlog10 CFU/mL blood (mean) / Log10 CFU/mL blood at 4 h, single mouse / Delta Log10 CFU/mL blood at 4 h, single mouse: 4 mg/kg; for Delta Log10 CFU/mL blood at 4 h, single mouse: treated mouse minus mean of vehicle mice
Protocol: The experimental methodology for the neutropenic mouse bloodstream infection model was described previously. Briefly, 7-week-old female Swiss mice (22–28 g) were rendered neutropenic by intraperitoneal administration of cyclophosphamide, 4 days (150 mg/kg) and 1 day (100 mg/kg) prior to inoculation. Bloodstream infection was established by intravenous administration of a 50 µL bolus of early log-phase bacterial suspension (4 × 10^8 CFU/mL). Lipopeptide solutions were prepared at 1 mg/mL (free base) in sterile saline. At 2 h after inoculation, mice (n = 3) were injected intravenously with lipopeptide solution at 4 mg/kg (free base) or saline control. At 0 and 4 h after administration, blood was collected, diluted serially in sterile saline, and plated on nutrient agar plates. Agar plates were incubated at 37 °C overnight for bacterial colony counting and the bacterial load in the blood (log10 CFU/mL) in each mouse was calculated. In vivo efficacy was calculated as the difference of the log10 CFU/mL blood values between the treated mice and the saline-treated mice at 4 h post dosing (Δlog10 CFU/mL blood = log10 [treated] CFU/mL blood − log10[control] CFU/mL blood).

P. aeruginosa ATCC 27853 [2] = type: cell-based, Pseudomonas aeruginosa
Protocol: as §1

[3] = tested on: P. aeruginosa FADDI-PA038; type: cell-based, Pseudomonas aeruginosa
Protocol: as §1

[4] = tested on: P. aeruginosa FADDI-PA025; type: cell-based, Pseudomonas aeruginosa
Protocol: as §1

[5] = tested on: K. pneumoniae FADDI-KP065; type: cell-based, Klebsiella pneumoniae
Protocol: as §1

[6] = tested on: K. pneumoniae FADDI-KP032; type: cell-based, Klebsiella pneumoniae
Protocol: as §1

Compound	MIC A. baumannii ATCC 19606 (A. baumannii ATCC 19606; ATCC 19606) [µg/mL]	MIC A. baumannii FADDI-AB034 (A. baumannii FADDI-AB034; FADDI-AB034) [µg/mL]	MIC A. baumannii FADDI-AB030 (A. baumannii FADDI-AB030; FADDI-AB030) [µg/mL]	MIC P. aeruginosa ATCC 27853 (P. aeruginosa ATCC 27853 [2]; ATCC 27853) [µg/mL]	MIC P. aeruginosa FADDI-PA038 ([3]; FADDI-PA038) [µg/mL]	MIC P. aeruginosa FADDI-PA025 ([4]; FADDI-PA025) [µg/mL]	MIC K. pneumoniae FADDI-KP065 ([5]; FADDI-KP065) [µg/mL]	MIC K. pneumoniae FADDI-KP032 ([6]; FADDI-KP032) [µg/mL]	Kidney histopathology (SQS Score) (Swiss mice, kidney)	Kidney histopathology, mice with the SQS score (Swiss mice, kidney)	Log10 CFU/mL blood at 4 h, Mean (P. aeruginosa ATCC 27853 [1]) [Log10 CFU/mL blood]	Δlog10 CFU/mL blood (mean) (P. aeruginosa ATCC 27853 [1]) [log10 CFU/mL blood]	Log10 CFU/mL blood at 4 h, single mouse (P. aeruginosa ATCC 27853 [1])	Delta Log10 CFU/mL blood at 4 h, single mouse (P. aeruginosa ATCC 27853 [1])	also measured
CCCCCCCC(=O)N[C@@H](CCN)C(=O)N[C@H](C(=O)N[C@H](CCN)C(=O)N[C@H]1CCNC(=O)[C@H]([C@@H](C)O)NC(=O)[C@H](CCN)NC(=O)[C@H](CCN)NC(=O)[C@H]([C@@H](C)O)NC(=O)[C@@H](CC(C)C)NC(=O)[C@H](CCN)NC1=O)[C@@H](C)O [Lipopeptide F085] (HELM PEPTIDE1{[CCCCCCCC(=O)[*:2]].[Dab].T.[NCC[C@@H](N[*:1])C(=O)[*:2]].[Dab].[Dab].[dL].T.[Dab].[Dab].T}$PEPTIDE1,PEPTIDE1,5:R3-11:R2$$$V2.0)	1 (≈ 0.875 µM)	2 (≈ 1.75 µM)	0.25 (≈ 0.219 µM)	0.5 (≈ 0.437 µM)	0.5 (≈ 0.437 µM)	8 (≈ 7 µM)	<0.125	0.25 (≈ 0.219 µM)	+2 (SQS + 2 = mild to moderate damage (overall score, 15 to <30))	2/2	2.97	−2.16	3.39 Log10 CFU/mL blood and 3.30 Log10 CFU/mL blood and 2.20 Log10 CFU/mL blood	-1.73 Log10 CFU/mL blood and -1.83 Log10 CFU/mL blood and -2.92 Log10 CFU/mL blood	–
CCCCCCCC(=O)N[C@@H](CCN)C(=O)N[C@H](C(=O)N[C@@H](CCN)C(=O)N[C@H]1CCNC(=O)[C@H]([C@@H](C)O)NC(=O)[C@H](CCN)NC(=O)[C@H](CCN)NC(=O)[C@H]([C@@H](C)O)NC(=O)[C@@H](CC(C)C)NC(=O)[C@H](CCN)NC1=O)[C@@H](C)O [Lipopeptide F100] (HELM PEPTIDE1{[CCCCCCCC(=O)[*:2]].[Dab].T.[Dab].[Dab].[Dab].[dL].T.[Dab].[Dab].T}$PEPTIDE1,PEPTIDE1,5:R3-11:R2$$$V2.0)	4 (≈ 3.5 µM)	2 (≈ 1.75 µM)	1 (≈ 0.875 µM)	0.5 (≈ 0.437 µM)	0.5 (≈ 0.437 µM)	>32	<0.125	0.25 (≈ 0.219 µM)	0 (SQS 0 = no significant change (overall score, <1))	3/3	4.44	−3.01	4.50 Log10 CFU/mL blood and 4.28 Log10 CFU/mL blood and 4.53 Log10 CFU/mL blood	-2.95 Log10 CFU/mL blood and -3.17 Log10 CFU/mL blood and -2.91 Log10 CFU/mL blood	–
CC[C@@H]1NC(=O)[C@@H](CC(C)C)NC(=O)[C@H](CCN)NC(=O)[C@@H](NC(=O)[C@H](CN)NC(=O)[C@@H](NC(=O)[C@H](CCN)NC(=O)c2ccccc2Cl)[C@@H](C)O)CCNC(=O)[C@H]([C@@H](C)O)NC(=O)[C@H](CCN)NC(=O)[C@H](CCN)NC1=O [Lipopeptide F350] (HELM PEPTIDE1{[O=C(c1ccccc1Cl)[*:2]].[Dab].T.[NC[C@H](N[*:1])C(=O)[*:2]].[Dab].[Dab].[dL].[Abu].[Dab].[Dab].T}$PEPTIDE1,PEPTIDE1,5:R3-11:R2$$$V2.0; bridges inferred)	–	–	–	–	–	–	–	–	–	–	–	–	–	–	MIC A. baumannii ATCC 19606 (A. baumannii ATCC 19606): 8 µg/mL (≈ 7.11 µM); MIC A. baumannii FADDI-AB034 (A. baumannii FADDI-AB034; carbapenem-resistant isolate): 4 µg/mL (≈ 3.55 µM); MIC A. baumannii FADDI-AB030 (A. baumannii FADDI-AB030; carbapenem-resistant isolate): 4 µg/mL (≈ 3.55 µM); MIC P. aeruginosa ATCC 27853 (P. aeruginosa ATCC 27853 [2]): 0.5 µg/mL (≈ 0.444 µM); MIC, 10% Survanta (P. aeruginosa ATCC 27853 [2]; P. aeruginosa ATCC 27853, 10% Survanta): 0.5 µg/mL (≈ 0.444 µM); MIC, No Survanta (P. aeruginosa ATCC 27853 [2]; P. aeruginosa ATCC 27853, no surfactant): 0.5 µg/mL (≈ 0.444 µM); MIC P. aeruginosa FADDI-PA038 ([3]; carbapenem-resistant isolate): 2 µg/mL (≈ 1.78 µM); MIC P. aeruginosa FADDI-PA025 ([4]; MDR clinical isolate): 4 µg/mL (≈ 3.55 µM); MIC K. pneumoniae FADDI-KP065 ([5]; carbapenem-resistant isolate): 0.5 µg/mL (≈ 0.444 µM); MIC K. pneumoniae FADDI-KP032 ([6]; carbapenem-resistant isolate): 1 µg/mL (≈ 0.888 µM)

More lines, main results first:

MIC A. baumannii ATCC 19606 (A. baumannii ATCC 19606; ATCC 19606) [µg/mL]	MIC A. baumannii FADDI-AB034 (A. baumannii FADDI-AB034; FADDI-AB034) [µg/mL]	MIC A. baumannii FADDI-AB030 (A. baumannii FADDI-AB030; FADDI-AB030) [µg/mL]	MIC P. aeruginosa ATCC 27853 (P. aeruginosa ATCC 27853 [2]; ATCC 27853) [µg/mL]	MIC P. aeruginosa FADDI-PA038 ([3]; FADDI-PA038) [µg/mL]	MIC P. aeruginosa FADDI-PA025 ([4]; FADDI-PA025) [µg/mL]	MIC K. pneumoniae FADDI-KP065 ([5]; FADDI-KP065) [µg/mL]	MIC K. pneumoniae FADDI-KP032 ([6]; FADDI-KP032) [µg/mL]	Compound	Kidney histopathology (SQS Score) (Swiss mice, kidney)	Kidney histopathology, mice with the SQS score (Swiss mice, kidney)	Log10 CFU/mL blood at 4 h, Mean (P. aeruginosa ATCC 27853 [1]) [Log10 CFU/mL blood]	Δlog10 CFU/mL blood (mean) (P. aeruginosa ATCC 27853 [1]) [log10 CFU/mL blood]	Log10 CFU/mL blood at 4 h, single mouse (P. aeruginosa ATCC 27853 [1])	Delta Log10 CFU/mL blood at 4 h, single mouse (P. aeruginosa ATCC 27853 [1])	also measured
1 (≈ 0.885 µM)	0.25 (≈ 0.221 µM)	<0.125	4 (≈ 3.54 µM)	4 (≈ 3.54 µM)	>32	0.25 (≈ 0.221 µM)	<0.125	CCCCCCCC(=O)N[C@@H](CCN)C(=O)N[C@H](C(=O)N[C@H](CO)C(=O)N[C@H]1CCNC(=O)[C@H]([C@@H](C)O)NC(=O)[C@H](CCN)NC(=O)[C@H](CCN)NC(=O)[C@H]([C@@H](C)O)NC(=O)[C@@H](CC(C)C)NC(=O)[C@H](CCN)NC1=O)[C@@H](C)O [Lipopeptide F183] (HELM PEPTIDE1{[CCCCCCCC(=O)[*:2]].[Dab].T.[dS].[Dab].[Dab].[dL].T.[Dab].[Dab].T}$PEPTIDE1,PEPTIDE1,5:R3-11:R2$$$V2.0)	0 (SQS 0 = no significant change (overall score, <1))	3/3	–	–	–	–	MIC, No Survanta (P. aeruginosa ATCC 27853 [2]; ATCC 27853): 4 µg/mL (≈ 3.54 µM)
>32	>32	32 (≈ 28.3 µM)	>32	>32	>32	2 (≈ 1.77 µM)	1 (≈ 0.885 µM)	CCCCCCCC(=O)N[C@@H](CCN)C(=O)N[C@H](C(=O)N[C@@H](CCN)C(=O)N[C@H]1CCNC(=O)[C@H]([C@@H](C)O)NC(=O)[C@H](CCN)NC(=O)[C@H](CCN)NC(=O)[C@H]([C@@H](C)O)NC(=O)[C@@H](C(C)C)NC(=O)[C@H](CCN)NC1=O)[C@@H](C)O [Lipopeptide F229] (HELM PEPTIDE1{[CCCCCCCC(=O)[*:2]].[Dab].T.[Dab].[Dab].[Dab].[dV].T.[Dab].[Dab].T}$PEPTIDE1,PEPTIDE1,5:R3-11:R2$$$V2.0)	0 (SQS 0 = no significant change (overall score, <1))	3/3	–	–	–	–	–
>32	>32	>32	>32	>32	>32	32 (≈ 28.3 µM)	16 (≈ 14.1 µM)	CCCCCCCC(=O)N[C@@H](CCN)C(=O)N[C@H](C(=O)N[C@@H](CCN)C(=O)N[C@H]1CCNC(=O)[C@H]([C@@H](C)O)NC(=O)[C@H](CCN)NC(=O)[C@H](CCN)NC(=O)[C@H]([C@@H](C)O)NC(=O)[C@@H]([C@H](C)O)NC(=O)[C@H](CCN)NC1=O)[C@@H](C)O [Lipopeptide F230] (HELM PEPTIDE1{[CCCCCCCC(=O)[*:2]].[Dab].T.[Dab].[Dab].[Dab].[dT].T.[Dab].[Dab].T}$PEPTIDE1,PEPTIDE1,5:R3-11:R2$$$V2.0)	0 (SQS 0 = no significant change (overall score, <1))	3/3	–	–	–	–	–
